Tests used:
[1] = tested on: A2780; assay: Antiproliferative activity against human A2780 cells; type: functional, cell-based
[2] = tested on: NCI-N87; assay: Antiproliferative activity against human NCI-N87 cells; type: functional, cell-based
[3] = Antitumor activity against human GEO cells xenografted in po dosed athymic mouse assessed as minimum effective dose; type: functional; settings: read-out: MED
[4] = molecular target: Receptor tyrosine-protein kinase erbB-2 (Homo sapiens) (UniProt P04626); assay: Inhibition of HER2
[5] = molecular target: Epidermal growth factor receptor (Homo sapiens) (UniProt P00533); assay: Inhibition of EGFR
[6] = AUC ( 0 to 24 hrs) in BALB/c mouse at 240 mg/kg, po; type: ADME, organism-based; set-up: time < 24 hr, dose 240 mg/kg, route oral; settings: plasma
[7] = tested on: NCI-N87; assay: Antitumor activity against human NCI-N87 cells xenografted in po dosed athymic mouse assessed as minimum effective dose administered Q1D for 14 days; settings: 336 h, read-out: MED
[8] = Cmax in BALB/c mouse at 50 mg/kg, po; type: ADME, organism-based; set-up: dose 50 mg/kg, route oral; settings: in vivo
[9] = Fraction unbound in BALB/c mouse serum at 10 uM by equilibrium dialysis; type: ADME, cell-free
[10] = Drug level in BALB/c mouse at 240 mg/kg, po after 3 hrs; type: ADME, organism-based; set-up: dose 240 mg/kg, route oral; settings: in vivo, read-out: Drug uptake
[11] = Drug level in BALB/c mouse at 240 mg/kg, po after 24 hrs; type: ADME, organism-based; set-up: dose 240 mg/kg, route oral; settings: in vivo, read-out: Drug uptake
[12] = Drug level in BALB/c mouse at 50 mg/kg, po after 4 hrs; type: ADME, organism-based; set-up: dose 50 mg/kg, route oral; settings: in vivo, read-out: Drug uptake
[13] = molecular target: Vascular endothelial growth factor receptor 2 (Homo sapiens, UniProt P35968); assay: Inhibition of KDR
[14] = Drug level in BALB/c mouse at 15 mg/kg, po after 24 hrs; type: ADME, organism-based; set-up: dose 15 mg/kg, route oral; settings: in vivo, read-out: Drug uptake
[15] = AUC ( 0 to 24 hrs) in BALB/c mouse at 15 mg/kg, po; type: ADME, organism-based; set-up: time < 24 hr, dose 15 mg/kg, route oral; settings: plasma
[16] = molecular target: Tyrosine-protein kinase Lck (Homo sapiens, UniProt P06239); assay: Inhibition of LCK
[17] = Drug level in BALB/c mouse at 15 mg/kg, po after 3 hrs; type: ADME, organism-based; set-up: dose 15 mg/kg, route oral; settings: in vivo, read-out: Drug uptake
[18] = Homo sapiens, A2780, read-out: IC50
[19] = Homo sapiens, NCI-N87, read-out: IC50

Chain of Epidermal growth factor receptor (Homo sapiens) (P00533 whole entry, looked up): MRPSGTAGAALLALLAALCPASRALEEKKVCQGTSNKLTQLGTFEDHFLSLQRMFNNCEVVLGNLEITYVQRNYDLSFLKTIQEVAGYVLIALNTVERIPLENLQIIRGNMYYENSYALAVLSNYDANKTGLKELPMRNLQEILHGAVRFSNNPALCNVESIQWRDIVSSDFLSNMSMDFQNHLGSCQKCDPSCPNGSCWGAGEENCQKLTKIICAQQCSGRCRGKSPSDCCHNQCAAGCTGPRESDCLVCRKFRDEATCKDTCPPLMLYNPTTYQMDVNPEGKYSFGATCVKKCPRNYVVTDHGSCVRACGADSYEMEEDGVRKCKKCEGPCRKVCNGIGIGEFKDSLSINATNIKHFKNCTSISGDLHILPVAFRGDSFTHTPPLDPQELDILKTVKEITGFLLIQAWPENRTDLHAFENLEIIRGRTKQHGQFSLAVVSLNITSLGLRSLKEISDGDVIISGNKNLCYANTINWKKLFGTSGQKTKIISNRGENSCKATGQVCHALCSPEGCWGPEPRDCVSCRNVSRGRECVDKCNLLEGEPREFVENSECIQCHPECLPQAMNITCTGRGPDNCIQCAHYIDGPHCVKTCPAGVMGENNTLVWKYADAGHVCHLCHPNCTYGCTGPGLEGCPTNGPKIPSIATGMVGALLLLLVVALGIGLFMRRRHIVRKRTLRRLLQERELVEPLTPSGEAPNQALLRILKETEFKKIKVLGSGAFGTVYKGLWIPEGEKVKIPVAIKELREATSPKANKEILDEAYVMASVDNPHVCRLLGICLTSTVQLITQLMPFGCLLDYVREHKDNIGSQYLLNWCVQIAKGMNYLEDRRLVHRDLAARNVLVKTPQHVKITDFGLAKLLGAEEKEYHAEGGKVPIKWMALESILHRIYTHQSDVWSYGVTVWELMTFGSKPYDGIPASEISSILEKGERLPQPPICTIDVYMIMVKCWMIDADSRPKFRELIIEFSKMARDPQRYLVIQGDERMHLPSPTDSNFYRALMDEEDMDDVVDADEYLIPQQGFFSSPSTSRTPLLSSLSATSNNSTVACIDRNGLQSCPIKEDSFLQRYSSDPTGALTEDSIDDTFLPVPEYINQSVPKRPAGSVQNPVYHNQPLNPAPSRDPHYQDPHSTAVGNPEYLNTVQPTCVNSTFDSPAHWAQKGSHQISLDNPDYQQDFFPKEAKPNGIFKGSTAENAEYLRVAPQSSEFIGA
Chain of Receptor tyrosine-protein kinase erbB-2 (Homo sapiens) (P04626 whole entry, looked up): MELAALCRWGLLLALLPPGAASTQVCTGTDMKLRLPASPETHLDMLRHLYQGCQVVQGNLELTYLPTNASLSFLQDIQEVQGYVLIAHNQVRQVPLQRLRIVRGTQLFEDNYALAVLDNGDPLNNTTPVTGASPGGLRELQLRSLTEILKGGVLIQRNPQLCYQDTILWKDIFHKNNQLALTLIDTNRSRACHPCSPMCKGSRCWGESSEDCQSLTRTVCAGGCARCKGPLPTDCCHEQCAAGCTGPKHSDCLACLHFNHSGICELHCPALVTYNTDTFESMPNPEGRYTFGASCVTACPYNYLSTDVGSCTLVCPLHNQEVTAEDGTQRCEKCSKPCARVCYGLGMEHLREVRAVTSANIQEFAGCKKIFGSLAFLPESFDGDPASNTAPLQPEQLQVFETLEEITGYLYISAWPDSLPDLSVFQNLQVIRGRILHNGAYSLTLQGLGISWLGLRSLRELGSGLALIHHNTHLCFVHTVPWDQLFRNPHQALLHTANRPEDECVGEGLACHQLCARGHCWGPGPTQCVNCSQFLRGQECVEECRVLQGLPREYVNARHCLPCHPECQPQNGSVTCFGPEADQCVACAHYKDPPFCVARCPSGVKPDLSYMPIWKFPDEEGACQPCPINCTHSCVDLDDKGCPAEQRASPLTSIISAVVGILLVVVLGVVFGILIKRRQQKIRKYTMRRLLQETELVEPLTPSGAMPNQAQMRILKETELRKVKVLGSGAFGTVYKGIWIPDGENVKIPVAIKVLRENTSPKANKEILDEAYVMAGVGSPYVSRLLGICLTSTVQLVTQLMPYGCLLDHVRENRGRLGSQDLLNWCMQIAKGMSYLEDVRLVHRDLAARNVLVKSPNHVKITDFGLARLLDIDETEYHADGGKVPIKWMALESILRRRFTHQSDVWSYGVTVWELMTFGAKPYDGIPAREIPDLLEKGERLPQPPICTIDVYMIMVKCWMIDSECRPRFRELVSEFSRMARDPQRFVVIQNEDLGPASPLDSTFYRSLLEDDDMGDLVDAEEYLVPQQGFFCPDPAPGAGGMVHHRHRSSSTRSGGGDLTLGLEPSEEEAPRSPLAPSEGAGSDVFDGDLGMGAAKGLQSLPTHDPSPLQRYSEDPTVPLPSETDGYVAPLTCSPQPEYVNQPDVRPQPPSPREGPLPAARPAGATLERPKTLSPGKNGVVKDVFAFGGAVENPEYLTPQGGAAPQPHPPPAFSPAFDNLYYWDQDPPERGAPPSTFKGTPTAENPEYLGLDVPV
Chain of Tyrosine-protein kinase Lck (P06239 whole entry): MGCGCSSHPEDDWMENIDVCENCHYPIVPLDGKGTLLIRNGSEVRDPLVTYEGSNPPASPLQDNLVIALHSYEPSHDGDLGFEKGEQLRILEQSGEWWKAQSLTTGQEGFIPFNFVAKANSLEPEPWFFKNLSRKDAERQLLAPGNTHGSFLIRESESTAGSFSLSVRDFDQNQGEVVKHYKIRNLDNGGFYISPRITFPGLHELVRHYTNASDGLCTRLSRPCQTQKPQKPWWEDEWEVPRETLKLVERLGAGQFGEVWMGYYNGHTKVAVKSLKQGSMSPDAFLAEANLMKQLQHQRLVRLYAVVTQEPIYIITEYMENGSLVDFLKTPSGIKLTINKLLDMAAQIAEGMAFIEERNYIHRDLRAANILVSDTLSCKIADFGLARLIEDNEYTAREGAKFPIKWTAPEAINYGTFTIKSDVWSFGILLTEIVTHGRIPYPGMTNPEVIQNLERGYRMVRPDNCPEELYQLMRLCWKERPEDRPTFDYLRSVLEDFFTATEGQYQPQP
Chain of Vascular endothelial growth factor receptor 2 (P35968 whole entry): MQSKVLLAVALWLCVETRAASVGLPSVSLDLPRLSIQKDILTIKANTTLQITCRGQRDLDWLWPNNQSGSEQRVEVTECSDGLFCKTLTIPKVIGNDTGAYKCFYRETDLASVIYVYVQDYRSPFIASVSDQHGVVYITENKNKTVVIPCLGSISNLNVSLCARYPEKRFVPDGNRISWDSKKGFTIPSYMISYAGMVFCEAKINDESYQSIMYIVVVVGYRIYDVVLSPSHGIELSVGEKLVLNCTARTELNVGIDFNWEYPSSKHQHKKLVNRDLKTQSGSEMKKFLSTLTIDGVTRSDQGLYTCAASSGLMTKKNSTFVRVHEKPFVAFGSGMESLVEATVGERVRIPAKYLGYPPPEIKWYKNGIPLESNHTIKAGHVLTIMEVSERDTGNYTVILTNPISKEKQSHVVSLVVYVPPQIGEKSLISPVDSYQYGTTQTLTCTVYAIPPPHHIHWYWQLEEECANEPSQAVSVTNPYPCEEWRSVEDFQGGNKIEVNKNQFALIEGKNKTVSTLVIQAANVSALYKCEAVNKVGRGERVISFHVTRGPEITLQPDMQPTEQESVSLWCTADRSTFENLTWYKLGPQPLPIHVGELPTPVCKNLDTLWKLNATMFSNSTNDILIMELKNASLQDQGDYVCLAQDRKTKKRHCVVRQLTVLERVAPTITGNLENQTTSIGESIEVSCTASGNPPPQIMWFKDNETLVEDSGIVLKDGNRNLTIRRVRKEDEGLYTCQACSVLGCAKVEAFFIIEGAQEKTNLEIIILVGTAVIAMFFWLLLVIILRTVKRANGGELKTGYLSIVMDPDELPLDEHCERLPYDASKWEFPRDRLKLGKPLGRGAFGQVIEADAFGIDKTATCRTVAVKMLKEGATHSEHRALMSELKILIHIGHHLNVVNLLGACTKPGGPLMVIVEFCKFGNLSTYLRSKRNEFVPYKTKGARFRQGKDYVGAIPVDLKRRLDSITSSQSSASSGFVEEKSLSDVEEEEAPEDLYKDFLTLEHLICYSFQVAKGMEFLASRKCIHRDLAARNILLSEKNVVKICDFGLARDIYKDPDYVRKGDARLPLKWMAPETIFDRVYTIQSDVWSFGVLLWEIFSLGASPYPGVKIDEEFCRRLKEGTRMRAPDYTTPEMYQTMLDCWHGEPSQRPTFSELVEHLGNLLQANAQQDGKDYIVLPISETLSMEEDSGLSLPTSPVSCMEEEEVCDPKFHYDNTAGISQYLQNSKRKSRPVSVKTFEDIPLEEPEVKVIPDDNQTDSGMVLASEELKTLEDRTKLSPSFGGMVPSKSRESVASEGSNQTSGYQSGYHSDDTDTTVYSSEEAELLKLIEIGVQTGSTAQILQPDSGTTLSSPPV

Row | SMILES | IC50 [1, 18] | IC50 [2, 19] | IC50 [4] | IC50 [5] | further results
1 | NC1CCN(Cc2ccn3ncnc(Nc4ccccc4)c23)CC1 | 3700 nM | 140 nM | – | – | –
2 | Cc1cccc(Nc2ncnn3ccc(CN4CCC(N)CC4)c23)c1 | > 5000 nM | 140 nM | 20 nM | 5 nM | minimal effective dose [3]: 60 mg/kg
3 | Cn1ncc2cc(Nc3ncnn4ccc(CN5CCC(N)CC5)c34)ccc21 | – | – | 950 nM | 360 nM | IC50 ([1]; a2780): Not Active; IC50 ([2]; nci-n87): Not Active
4 | C#Cc1cccc(Nc2ncnn3ccc(CN4CCC(N)CC4)c23)c1 | 2300 nM | 120 nM | 10 nM | 7 nM | minimal effective dose [3]: 15 mg/kg
5 | COc1ccc(Nc2ncnn3ccc(CN4CCC(N)CC4)c23)cc1Cl | > 5000 nM | 1210 nM | 210 nM | 70 nM | –
6 | Cc1ccccc1Nc1ncnn2ccc(CN3CCC(N)CC3)c12 | > 5000 nM | 3300 nM | 660 nM | 20 nM | –
7 | NC1CCN(Cc2ccn3ncnc(Nc4cccc(Cl)c4)c23)CC1 | > 5000 nM | 60 nM | 9 nM | 4 nM | minimal effective dose [3]: 60 mg/kg
8 | CC(C)Nc1ncnn2ccc(CN3CCC(N)CC3)c12 | – | – | > 1000 nM | 880 nM | –
9 | NC1CCN(Cc2ccn3ncnc(Nc4cccc(F)c4)c23)CC1 | > 5000 nM | 280 nM | 32 nM | 6 nM | –
10 | Fc1cccc(Cn2ncc3cc(Nc4ncnn5ccc(COC[C@@H]6CNCCO6)c45)ccc32)c1 | – | – | – | – | AUC(0-t) at 24 h [6]: 100 µM·h; minimal effective dose [7]: 60 mg/kg; Cmax [8]: 9.5 µM; fraction unbound at 10 µM [9]: 0.026; concentration at 3 h [10]: 5.8 µM; concentration at 24 h [11]: 0.1 µM
11 | Cc1ccc(Nc2ncnn3ccc(CN4CCC(N)CC4)c23)cc1 | > 5000 nM | 790 nM | 50 nM | 6 nM | –
12 | Cn1ncc2cc(Nc3ncnn4ccc(COC[C@@H]5CNCCO5)c34)ccc21 | – | – | > 1000 nM | > 1000 nM | IC50 ([1]; a2780): Not Active; IC50 ([2]; nci-n87): Not Active
13 | NC1CCN(Cc2ccn3ncnc(Nc4ccc5c(cnn5Cc5cccc(F)c5)c4)c23)CC1 | – | – | – | 22 nM | minimal effective dose [7]: 60 mg/kg; Cmax [8]: 4.5 µM; concentration at 4 h [12]: 2.7 µM
14 | Cc1c(NC(=O)OC[C@@H]2COCCN2)cn2ncnc(Nc3ccc4c(cnn4Cc4cccc(F)c4)c3)c12 [AC-480] | – | – | – | – | minimal effective dose [7]: 120 mg/kg; minimal effective dose [3]: 120 mg/kg
15 | NC1CCN(Cc2ccn3ncnc(Nc4ccc(F)c(Cl)c4)c23)CC1 | > 5000 nM | 120 nM | 10 nM | 6 nM | minimal effective dose [3]: 15 mg/kg; IC50 [13]: 110 nM; fraction unbound at 10 µM [9]: 0.012; concentration at 24 h [14]: 6.8 µM; AUC(0-t) at 24 h [15]: 160 µM·h; IC50 [16]: 370 nM; concentration at 3 h [17]: 7.2 µM
16 | C#Cc1cccc(Nc2ncnn3ccc(COC[C@@H]4CNCCO4)c23)c1 | 3900 nM | 4400 nM | 670 nM | 20 nM | –
17 | NC1CCN(Cc2ccn3ncnc(Nc4cc(Cl)cc(Cl)c4)c23)CC1 | 4000 nM | 3360 nM | 130 nM | 34 nM | –
18 | NC1CCN(Cc2ccn3ncnc(Nc4cccc(Br)c4)c23)CC1 | 2600 nM | 50 nM | 6 nM | 4 nM | –
